One series deals with Lucilia cuprina larvae. The experiment in a line: Lucilia cuprina test (LUCICU). It is filed as in vivo. As to conditions: 1152 h, read-out: activity (kill in %). Here is the method:
(§1) Solvent: dimethyl sulphoxide
Vessels containing horse meat treated with the active ingredient preparation of the desired concentration are populated with about 20 Lucilia cuprina larvae.
(§2) After 48 days, the kill in % is determined.

The next series has as its system Boophilus microplus. The experiment in a line: Boophilus microplus test (BOOPMI injection). It is filed as in vivo. As to conditions: Rhipicephalus microplus, 168 h; 20 μg/animal, injection into the abdomen, after 7 days; read-out: activity in % (no fertile eggs laid). Here is the method:
as §1
The active compound solution is injected into the abdomen (Boophilus microplus), and the animals are transferred into dishes and stored in a climate-controlled room.
The activity is assessed by […] of fertile eggs. 100% means that none of the ticks has laid any fertile eggs.

Series [1] deals with caterpillars of the armyworm (Spodoptera frugiperda). The experiment in a line: Spodoptera frugiperda test (SPODFR spray treatment). It is filed as in vivo. The conditions noted are these: Spodoptera frugiperda, 168 h, read-out: activity in % (caterpillars killed).
Series [2] concerns green peach aphid (Myzus persicae). Put plainly: Myzus test (MYZUPE spray treatment). It is filed as in vivo. The conditions noted are these: Myzus persicae, 144 h; for pest or weed control at 500 g/ha / pest or weed control at 100 g/ha: read-out: activity in % (aphids killed).
Series [3] concerns larvae of the mustard beetle (Phaedon cochleariae). The experiment in a line: Phaedon test (PHAECO spray treatment). The conditions noted are these: Phaedon cochleariae, 168 h, read-out: activity in % (beetle larvae killed).
The nature of series [4]: log P by HPLC on reversed-phase columns (EEC Directive 79/831 Annex V.A8). It is filed as physicochemical. As to conditions: for log P (second value after the slash): pH 2.7.
For the next series, the system named is adult Musca domestica. Put plainly: Musca domestica test (MUSCDO). It is filed as in vivo. The conditions noted are these: 1152 h, read-out: activity (kill in %). Here is the method:
as §1
Vessels containing a sponge treated with the active compound preparation of the desired concentration are populated with adult Musca domestica.
as §2

Where [5] appears, read: application rate 500 g/ha, after 7 days.
[6] abbreviates: application rate 500 g/ha, after 6 days.
[7] abbreviates: reversed-phase C18 HPLC column, pH 2.7, HPLC reversed-phase C18, acidic range pH 2.7 (HCOOH), only or first value of the cell, read-out: log P.
The mark [8] stands for this setting: application rate 100 g/ha, after 7 days.
The mark [9] stands for this setting: application rate 100 g/ha, after 6 days.

Each structure is given as a SMILES string. Like-named read-outs stand apart in the source and are kept apart here.

The results in this text go back to US8791143B2, “Anthranilic diamide derivatives having cyclic side-chains” (priority 2010, dated 2014).

For `Cc1cc(Cl)cc(C(=O)NC2CCS(=O)(=O)C2)c1NC(=O)c1cc(Cn2nnc(C(F)(F)C(F)(F)F)n2)nn1-c1ncccc1Cl` (centres unmarked) [Example 37], the pest or weed control at 100 ppm with Lucilia cuprina larvae (100 ppm, after 48 days) is 100%; in the series on adult Musca domestica (100 ppm, after 48 days), 80%. In addition, the pest or weed control at 0.02 mg in the series on Boophilus microplus was 100%. Moreover, the pest or weed control at 500 g/ha in series [1] (setting [5]), in series [2] (setting [6]) and in series [3] was 100% throughout. The chromatographic logP in series [4] (setting [7]) was found to be 3.13.

`Cc1cc(C#N)cc(C(=O)NC2CCSC2=O)c1NC(=O)c1cc(Cn2nnc(C(F)(F)C(F)(F)F)n2)nn1-c1ncccc1Cl` (centres unmarked) [Example 40]: the pest or weed control at 100 ppm in the series with Lucilia cuprina larvae (100 ppm, after 48 days) came to 100%. Also, the pest or weed control at 0.02 mg in the series on Boophilus microplus was found to be 100%. Moreover, the pest or weed control at 500 g/ha in series [1] (setting [5]) and in series [3] was 100% in each case. In addition, the chromatographic logP in series [4] (setting [7]) turned out to be 3.25.

With `Cc1cc(Cl)cc(C(=O)N[C@@H]2CCOC2=O)c1NC(=O)c1cc(Cn2nnc(C(F)(F)F)n2)nn1-c1ncccc1Cl` [Example 42], the pest or weed control at 100 ppm was determined as 100% in the series on Lucilia cuprina larvae and 90% in the series with adult Musca domestica. The pest or weed control at 0.02 mg with Boophilus microplus came to 100%. For the same molecule, the pest or weed control at 100 g/ha in series [1], in series [2] and in series [3] was 100% in each case. Moreover, the “log P (second value after the slash)” value in series [4] was 2.53. Besides, in series [4] (pH 2.7, log P), the chromatographic logP came out at 2.84.

Turning to `Cc1cc(Cl)cc(C(=O)N[C@@H]2CCOC2=O)c1NC(=O)c1cc(Cn2nnc(C(F)(F)C(F)(F)F)n2)nn1-c1ncccc1Cl` [Example 43], in the series with Lucilia cuprina larvae, the pest or weed control at 100 ppm was 100%. In addition, in the series with Boophilus microplus, the pest or weed control at 0.02 mg was found to be 100%. In addition, the pest or weed control at 100 g/ha in series [1] and in series [3] was 100% in each case. In addition, the pest or weed control at 500 g/ha in series [2] was 100%. In addition, the “log P (second value after the slash)” value in series [4] is 2.92. Moreover, in series [4] (pH 2.7, log P), the chromatographic logP is 3.21.

On to `Cc1cc(C#N)cc(C(=O)NCc2ccc(S(F)(F)(F)(F)F)cc2)c1NC(=O)c1cc(Cn2nnnc2C(F)(F)F)nn1-c1ncccc1Cl` [Example 69], for which the pest or weed control at 100 ppm in the series on Lucilia cuprina larvae (100 ppm, after 48 days) was 100%. Further, in the series with Boophilus microplus, the pest or weed control at 0.02 mg turned out to be 100%. Further, the pest or weed control at 100 g/ha in series [1] (setting [8]) and in series [3] was 100% each time. Moreover, the chromatographic logP in series [4] (setting [7]) is 3.68. Further, in the series on adult Musca domestica (20 ppm, after 48 days), the pest or weed control at 20 ppm came out at 80%.

Turning to `Cc1cc(Cl)cc(C(=O)NC2CCN(Cc3ccccc3)C2)c1NC(=O)c1cc(Cn2nnc(C(F)(F)C(F)(F)F)n2)nn1-c1ncccc1Cl` (centres unmarked) [Example 33], in the series on Lucilia cuprina larvae (100 ppm, after 48 days), the pest or weed control at 100 ppm worked out at 100%. Moreover, in the series with Boophilus microplus, the pest or weed control at 0.02 mg was 100%. The pest or weed control at 500 g/ha in series [1] (setting [5]) and in series [3] was 100% in each case. Also, the chromatographic logP in series [4] (setting [7]) came to 2.3.

As for `Cc1cc(C#N)cc(C(=O)NC2=NCCS2)c1NC(=O)c1cc(Cn2nnc(C(F)(F)F)n2)nn1-c1ncccc1Cl` [Example 46], the pest or weed control at 100 g/ha in series [1], in series [2] and in series [3] was 100% throughout. Moreover, in series [4], the “log P (second value after the slash)” value is 2.75. Besides, the chromatographic logP in series [4] (pH 2.7, log P) is 3.11.

As for `Cc1cc(C#N)cc(C(=O)NC2CCN(C)C2=O)c1NC(=O)c1cc(Cn2nnc(C(F)(F)F)n2)nn1-c1ncccc1Cl` (centres unmarked) [Example 49], the pest or weed control at 100 g/ha in series [1], in series [2] and in series [3] was 100% in each case. The “log P (second value after the slash)” value in series [4] stood at 2.19. In series [4] (pH 2.7, log P), this molecule had a chromatographic logP of 2.39.

Regarding `Cc1cc(Cl)cc(C(=O)NCc2ncc(F)cc2F)c1NC(=O)c1cc(Cn2nnc(C(F)(F)F)n2)nn1-c1ncccc1Cl` [Example 231], the pest or weed control at 100 g/ha came out at 100% in series [1], 90% in series [2] and 100% in series [3]. The molecule also came in with a chromatographic logP in series [4] (pH 2.7, log P) of 3.5.

Turning to `Cc1cc(C#N)cc(C(=O)NC2CSC2)c1NC(=O)c1cc(Cn2nnc(C(F)(F)F)n2)nn1-c1ccccc1Cl` [Example 25], the pest or weed control at 100 g/ha in series [1] (setting [8]), in series [2] (setting [9]) and in series [3] was 100% throughout. In addition, the chromatographic logP in series [4] (setting [7]) turned out to be 3.46.

Turning to `Cc1cc(Cl)cc(C(=O)NC2=NCCS2)c1NC(=O)c1cc(Cn2nnc(C(F)(F)F)n2)nn1-c1ncccc1Cl` [Example 45], the pest or weed control at 100 g/ha in series [1], in series [2] and in series [3] was 100% throughout. In addition, the “log P (second value after the slash)” value in series [4] turned out to be 3.14. In series [4] (pH 2.7, log P), this molecule came in with a chromatographic logP of 3.5.

Turning to `O=C(NC1COC1)c1cc(Cl)cc(Cl)c1NC(=O)c1cc(Cn2nnc(C(F)(F)C(F)(F)F)n2)nn1-c1ncccc1Cl` [Example 10], the pest or weed control at 100 g/ha in series [1] and in series [3] was 100% throughout. The pest or weed control at 500 g/ha in series [2] is 100%. Further, in series [4] (pH 2.7, log P), the chromatographic logP was 3.18.

On to `Cc1cc(Cl)cc(C(=O)NCc2ccc(F)cn2)c1NC(=O)c1cc(Cn2nnc(C(F)(F)F)n2)nn1-c1ncccc1Cl` [Example 224], for which the figures for the pest or weed control at 100 g/ha in series [1], in series [2] and in series [3] were 100%, 90% and 100%, respectively. Moreover, the chromatographic logP in series [4] (pH 2.7, log P) was 3.24.

Regarding `Cc1cc(Cl)cc(C(=O)NC2CCN(Cc3ccccc3)C2)c1NC(=O)c1cc(Cn2nnc(C(F)(F)F)n2)nn1-c1ncccc1Cl` (centres unmarked) [Example 31], the pest or weed control at 100 ppm in the series with Lucilia cuprina larvae (100 ppm, after 48 days) was determined as 100%. Besides, in the series with Boophilus microplus, the pest or weed control at 0.02 mg is 100%. Further, the pest or weed control at 500 g/ha in series [1] (setting [5]), in series [2] (setting [6]) and in series [3] was 100% each time. Also, the chromatographic logP in series [4] (setting [7]) was 2.03.

For the molecule `Cc1cc(Cl)cc(C(=O)NCc2ccccc2OC(F)(F)F)c1NC(=O)c1cc(Cn2nnc(C(F)F)n2)nn1-c1ncccc1Cl` [Example 150], the pest or weed control at 100 g/ha in series [1] (setting [8]), in series [2] (setting [9]) and in series [3] was 100% each time. For the same molecule, in series [4] (setting [7]), the chromatographic logP was 3.81.

As to `O=C(NCc1ccccc1OC(F)(F)F)c1cc(Br)cc(Cl)c1NC(=O)c1cc(Cn2nnc(C(F)(F)F)n2)nn1-c1ncccc1Cl` [Example 193], the pest or weed control at 100 g/ha in series [1] (setting [8]) was found to be 100%; in series [2] (setting [9]), 90%; in series [3], 100%. The chromatographic logP in series [4] (setting [7]) stood at 4.3.

Turning to `Cc1cc(C#N)cc(C(=O)NC2=NCCS2)c1NC(=O)c1cc(Cn2nnc(C(F)(F)C(F)(F)F)n2)nn1-c1ncccc1Cl` [Example 48], the pest or weed control at 100 g/ha was determined as 100% in series [1], 80% in series [2] and 100% in series [3]. For the same molecule, in series [4], the “log P (second value after the slash)” value is listed as 3.18. The chromatographic logP in series [4] (pH 2.7, log P) turned out to be 3.49.

As to `Cc1cc(C#N)cc(C(=O)NC2CCN(Cc3ccccc3)C2)c1NC(=O)c1cc(Cn2nnc(C(F)(F)C(F)(F)F)n2)nn1-c1ncccc1Cl` (centres unmarked) [Example 32], the pest or weed control at 500 g/ha in series [1] (setting [5]) and in series [3] was 100% each time. Besides, the pest or weed control at 100 g/ha in series [2] (setting [9]) stood at 90%. Moreover, the chromatographic logP in series [4] (setting [7]) stood at 2.14.

Consider `Cc1cc(Cl)cc(C(=O)Nc2ccccc2)c1NC(=O)c1cc(Cn2nnc(C(F)(F)F)n2)nn1-c1ncccc1Cl` [Example 72], for which the pest or weed control at 100 g/ha in series [1] was determined as 100%; in series [2] it was 80%; in series [3] it was 100%. For the same molecule, in series [4] (pH 2.7, log P), the chromatographic logP is 3.81.

In the case of `Cc1cc(Cl)cc(C(=O)NC2COC2)c1NC(=O)c1cc(Cn2cc(Br)c(C(F)(F)F)n2)nn1-c1ncccc1Cl` [Example 24], the pest or weed control at 100 ppm in the series on Lucilia cuprina larvae stood at 100%. Moreover, the pest or weed control at 0.02 mg in the series with Boophilus microplus was found to be 100%. The pest or weed control at 100 g/ha in series [1] and in series [3] was 100% in each case. In series [4] (pH 2.7, log P), this molecule had a chromatographic logP of 3.2.

The term inhibition denotes the share of the control response that was lost under treatment. `Cc1cc(C#N)cc(C(=O)NC2CCS(=O)(=O)C2)c1NC(=O)c1cc(Cn2nnc(C(F)(F)F)n2)nn1-c1ncccc1Cl` (centres unmarked) [Example 29, 1-(3-chloropyridin-2-yl)-N-{4-cyano-2-[(1,1-dioxidotetrahydrothiophen-3-yl)carbamoyl]-6-methylphenyl}-3-{[5-(trifluoromethyl)-2H-tetrazol-2-yl]methyl}-1H-pyrazole-5-carboxamide]: the pest or weed control at 500 g/ha in series [1], in series [2] and in series [3] was 100% in each case. In series [2] (100 g/ha, 6 d, comparison with prior art), the inhibition at 100 g/ha was 100%. In series [4], the “log P (second value after the slash)” value came to 2.17. Further, the chromatographic logP in series [4] (pH 2.7, log P) came out at 2.47.
